Measured values as given in US12404283B2, “c-MYC mRNA translation modulators and uses thereof in the treatment of cancer” (Anima Biotech Inc., priority 2022, dated 2025).
Counter-ions that a name gives are not always drawn.

Tested on: c-Myc
Experiment: c-Myc immunofluorescence assay
Format: cell-based, human
Details: A549 cells, 24 hours treatment, anti-c-Myc immunofluorescence
How it was run: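 High-content imaging (20×) of PFA-fixed A549 cells immunostained for c-Myc with DAPI nuclei, after 24 h compound treatment at increasing concentrations. Per-cell c-Myc signal in identified cell regions was plotted against dose and fitted by logistic regression to give EC50.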

| Structure (SMILES) | Myc Efficacy (−LogEC50) |
| --- | --- |
| Cc1ccc(-c2cn3c(n2)sc2cc(C(=O)N4CCCCCC4)ccc23)cc1 [compound 102, Azepan-1-yl(2-(p-tolyl)benzo[d]imidazo[2,1-b]thiazol-7-yl)methanone] | + (+ >3 and <5) |
| O=C(NCCCN1CCCCCC1)c1ccc2c(c1)sc1nc(-c3ccccc3)cn12 [compound 103, N-(3-(azepan-1-yl)propyl)-2-phenylbenzo[d]imidazo[2,1-b]thiazole-7-carboxamide] | +++ (+++ ≥6) |
| O=C(c1ccc2c(c1)sc1nc(-c3ccc(F)cc3)cn12)N1CCCCCC1 [compound 104, azepan-1-yl(2-(4-fluorophenyl)benzo[d]imidazo[2,1-b]thiazol-7-yl)methanone] | + (+ >3 and <5) |
| CCCSCCCNC(=O)c1ccc2c(c1)sc1nc(-c3ccc(F)cc3)cn12 [compound 105, 2-(4-fluorophenyl)-N-(3-(propylthio)propyl)benzo[d] imidazo[2,1-b]thiazole-7-carboxamide] | + (+ >3 and <5) |
| CCOc1ccc(-c2cn3c(n2)sc2cc(C(=O)N4CCCCCC4)ccc23)cc1 [compound 106, azepan-1-yl(2-(4-ethoxyphenyl)benzo[d]imidazo[2,1-b]thiazol-7-yl)methanone] | + (+ >3 and <5) |
| CCN(CC)CCCNC(=O)c1ccc2c(c1)sc1nc(-c3ccccc3)cn12 [compound 107, N-(3-(diethylamino)propyl)-2-phenylbenzo[d]imidazo [2,1-b]thiazole-7-carboxamide] | ++ (++ ≥5 and <6) |
| CCCNC(=O)c1ccc2c(c1)sc1nc(-c3ccc(C)cc3)cn12 [compound 108, N-propyl-2-(p-tolyl)benzo[d]imidazo[2,1-b]thiazole-7-carboxamide] | ++ (++ ≥5 and <6) |
| CCNC(=O)c1ccc2c(c1)sc1nc(-c3ccc(C)cc3)cn12 [compound 109, N-ethyl-2-(p-tolyl)benzo[d]imidazo[2,1-b]thiazole-7-carboxamide] | ++ (++ ≥5 and <6) |
| CC(=O)NCCCNC(=O)c1ccc2c(c1)sc1nc(-c3ccc(C)cc3)cn12 [compound 110, N-(3-acetamidopropyl)-2-(p-tolyl)benzo[d]imidazo[2,1-b]thiazole-7-carboxamide] | − (− ≤3) |
| CCN(CC)CCCNC(=O)c1ccc2c(c1)sc1nc(-c3ccc(Cl)cc3)cn12 [compound 111, 2-(4-chlorophenyl)-N-(3-(diethylamino)propyl)benzo [d]imidazo[2,1-b]thiazole-7-carboxamide] | ++ (++ ≥5 and <6) |
| Cc1ccc(-c2cn3c(n2)sc2cc(C(=O)NC[C@H]4CCNC4)ccc23)cc1 [compound 114, (S)-N-(pyrrolidin-3-ylmethyl)-2-(p-tolyl)benzo[d]imidazo[2,1-b]thiazole-7-carboxamide formate] | ++ (++ ≥5 and <6) |
| Cc1ccc(-c2cn3c(n2)sc2cc(C(=O)NCCCN)ccc23)cc1 [compound 115, N-(3-aminopropyl)-2-(p-tolyl)benzo[d]imidazo[2,1-b]thiazole-7-carboxamide] | + (+ >3 and <5) |
| Cc1ccc(-c2cn3c(n2)sc2cc(C(=O)NC[C@@H]4CCNC4)ccc23)cc1 [compound 116, (R)-N-(pyrrolidin-3-ylmethyl)-2-(p-tolyl)benzo[d]imidazo [2,1-b]thiazole-7-carboxamide formate] | ++ (++ ≥5 and <6) |
| Cc1ccc(-c2cn3c(n2)sc2cc(C(=O)NCC4CNC4)ccc23)cc1 [compound 117, N-(azetidin-3-ylmethyl)-2-(p-tolyl)benzo[d]imidazo [2,1-b]thiazole-7-carboxamide] | + (+ >3 and <5) |
| CCN(CC)CCCNC(=O)c1ccc2c(c1)sc1nc(-c3cccc(C)c3)cn12 [compound 118, N-(3-(diethylamino)propyl)-2-(m-tolyl)benzo[d]imidazo [2,1-b]thiazole-7-carboxamide] | +++ (+++ ≥6) |
| CCN1CCC[C@H]1CNC(=O)c1ccc2c(c1)sc1nc(-c3cccc(OC)c3)cn12 [compound 119, (S)-N-((1-ethylpyrrolidin-2-yl)methyl)-2-(3-methoxyphenyl)benzo[d] imidazo[2,1-b]thiazole-7-carboxamide] | ++ (++ ≥5 and <6) |
| Cc1ccc(-c2cn3c(n2)sc2cc(C(=O)NCCN)ccc23)cc1 [compound 122, N-(2-aminoethyl)-2-(p-tolyl)benzo[d]imidazo[2,1-b]thiazole-7-carboxamide] | + (+ >3 and <5) |
| CCN(CC)CCCNC(=O)c1ccc2c(c1)sc1nc(-c3ccccc3C)cn12 [compound 123, N-(3-(diethylamino)propyl)-2-(o-tolyl)benzo[d]imidazo [2,1-b]thiazole-7-carboxamide] | ++ (++ ≥5 and <6) |

| Structure (SMILES) | Myc Efficacy (−LogEC50) |
| --- | --- |
| CCN(CC)CCCNC(=O)c1ccc2c(c1)sc1nc(-c3ccccc3Cl)cn12 [compound 124, 2-(2-ehlorophenyl)-N-(3-(diethylamino)propyl)benzo [d]imidazo[2,1-b]thiazole-7-carboxamide] | ++ (++ ≥5 and <6) |
| CCN(CC)CCCNC(=O)c1ccc2c(c1)sc1nc(-c3ccc(C(=O)NC)cc3)cn12 [compound 125, N-(3-(diethylamino)propyl)-2-(4-(methylcarbamoyl)phenyl) benzo[d]imidazo[2,1-b]thiazole-7-carboxamide] | ++ (++ ≥5 and <6) |
| CCc1ccc(-c2cn3c(n2)sc2cc(C(=O)NCCCN(CC)CC)ccc23)cc1 [compound 126, N-(3-(diethylamino)propyl)-2-(4-ethylphenyl)benzo[d] imidazo[2,1-b]thiazole-7-carboxamide] | ++ (++ ≥5 and <6) |
| CCN1CCC[C@@H]1CNC(=O)c1ccc2c(c1)sc1nc(-c3cccc(OC)c3)cn12 [compound 127, (R)-N-((1-ethylpyrrolidin-2-yl)methyl)-2-(3-methoxyphenyl)benzo[d] imidazo[2,1-b]thiazole-7-carboxamide] | + (+ >3 and <5) |
| CCN(CC)CCCNC(=O)c1ccc2c(c1)sc1nc(-c3ccccc3F)cn12 [compound 129, N-(3-(diethylamino)propyl)-2-(2-fluorophenyl)benzo[d] imidazo[2,1-b]thiazole-7-carboxamide] | ++ (++ ≥5 and <6) |
| CCN(CC)CCCNC(=O)c1ccc2c(c1)sc1nc(-c3cccc(F)c3)cn12 [compound 130, N-(3-(diethylamino)propyl)-2-(3-fluorophenyl)benzo[d] imidazo[2,1-b]thiazole-7-carboxamide] | ++ (++ ≥5 and <6) |
| CCN(CC)CCCNC(=O)c1ccc2c(c1)sc1nc(-c3cccc(Cl)c3)cn12 [compound 131, 2-(3-chlorophenyl)-N-(3-(diethylamino)propyl)benzo [d]imidazo[2,1-b]thiazole-7-carboxamide] | ++ (++ ≥5 and <6) |
| O=C(NCCCN1CCCCC1)c1ccc2c(c1)sc1nc(-c3ccc(Cl)cc3)cn12 [compound 132, 2-(4-chlorophenyl)-N-(3-(piperidin-1-yl)propyl) benzo[d]imidazo[2,1-b]thiazole-7-carboxamide] | ++ (++ ≥5 and <6) |
| Cc1cccc(-c2cn3c(n2)sc2cc(C(=O)NCCCN4CCC(F)(F)CC4)ccc23)c1 [compound 133, N-(3-(4,4-difluoropiperidin-1-yl)propyl)-2-(m-tolyl)benzo[d]imidazo[2,1-b]thiazole-7-carboxamide] | ++ (++ ≥5 and <6) |
| Cc1cccc(-c2cn3c(n2)sc2cc(C(=O)NCCCN4CCOCC4)ccc23)c1 [compound 134, N-(3-morpholinopropyl)-2-(m-tolyl)benzo[d]imidazo[2,1-b]thiazole-7-carboxamide] | + (+ >3 and <5) |
| Cc1cccc(-c2cn3c(n2)sc2cc(C(=O)NCCCN4CCS(=O)(=O)CC4)ccc23)c1 [compound 135, N-(3-(1,1-dioxidothiomorpholino)propyl)-2-(m-tolyl)benzo[d]imidazo[2,1-b]thiazole-7-carboxamide] | + (+ >3 and <5) |
| CCN(CC)CCCNC(=O)c1ccc2c(c1)sc1nc(-c3ccc(C(C)C)cc3)cn12 [compound 136, N-(3-(diethylamino)propyl)-2-(4-isopropylphenyl)benzo[d] imidazo[2,1-b]thiazole-7-carboxamide formate] | ++ (++ ≥5 and <6) |
| Cc1cccc(-c2cn3c(n2)sc2cc(C(=O)NCCCN4CCC(F)CC4)ccc23)c1 [compound 137, N-(3-(4-fluoropiperidin-1-yl)propyl)-2-(m-tolyl)benzo[d]imidazo[2,1-b]thiazole-7-carboxamide] | ++ (++ ≥5 and <6) |
| Cc1cccc(-c2cn3c(n2)sc2cc(C(=O)N[C@H]4C[C@@H](N5CCCCC5)C4)ccc23)c1 [compound 138, N-((1s,3s)-3-(piperidin-1-yl)cyclobutyl)-2-(m-tolyl)benzo[d]imidazo[2,1-b]thiazole-7-carboxamide] | ++ (++ ≥5 and <6) |
| Cc1cccc(-c2cn3c(n2)sc2cc(C(=O)NCCCC4CCOCC4)ccc23)c1 [compound 139, N-(3-(tetrahydro-2H-pyran-4-yl)propyl)-2-(m-tolyl)benzo[d]imidazo[2,1-b]thiazole-7-carboxamide] | + (+ >3 and <5) |
| Cc1cccc(-c2cn3c(n2)sc2cc(C(=O)NC4CCNCC4)ccc23)c1 [compound 140, N-(piperidin-4-yl)-2-(m-tolyl)benzo[d]imidazo[2,1-b]thiazole-7-carboxamide] | ++ (++ ≥5 and <6) |
| Cc1cccc(-c2cn3c(n2)sc2cc(C(=O)N4CCNCC4)ccc23)c1 [compound 141, piperazin-1-yl(2-(m-tolyl)benzo[d]imidazo[2,1-b]thiazol-7-yl)methanone] | + (+ >3 and <5) |
| CCN(CC)CCCNC(=O)c1ccc2c(c1)sc1nc(-c3ccc(OC)cc3)cn12 [compound 142, N-(3-(diethylamino)propyl)-2-(4-methoxyphenyl)benzo[d] imidazo[2,1-b]thiazole-7-carboxamide] | ++ (++ ≥5 and <6) |
